According to patent US20260297081A1, “COMPOUNDS AND METHODS OF TREATING CANCERS” (Cullgen Inc., priority 2023, published 2026):

Key:
[1] = system: Calu-1 cells; experiment: Anti-proliferation (viability) of NSCLC Calu-1 cells, 3 days (Table 7, FIG. 2B); type: cell-based; conditions: Homo sapiens, 72 h; Calu-1 cells, 3 days, 10-point serial dilution; read-out: GI IC50 in Calu-1
Procedure, shortened: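 Viability after a 10-point dilution series of heterobifunctional compounds, with exposure of 6 days for ER+ breast T47D cells and 3 days for NSCLC Calu-1 cells.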

[2] = system: MCF7 cells; experiment: Anti-proliferation (viability) of MCF7 cells (Table 7, FIG. 2B); type: cell-based; conditions: Homo sapiens, MCF7, MCF7 cells, 3-6 days, 10-point serial dilution; read-out: GI IC50 in MCF-7

| SMILES | IC50 [1] [nM] | IC50 [2] [nM] |
| --- | --- | --- |
| CCN1CCc2cc(-c3nc(Nc4ccc(CN5CCN(CC(=O)NC6CC7(C6)CC(Nc6nc(NC(C)C)ccc6C(=O)Nc6ccc(N(C)C)nn6)C7)CC5)cn4)ncc3F)ccc2C1=O (stereo not drawn) [CPD-554, N-(6-(dimethylamino)pyridazin-3-yl)-2-((6-(2-(4-((6-((4-(2-ethyl-1-oxo-1,2,3,4-tetrahydroisoquinolin-6-yl)-5-fluoropyrimidin-2-yl)amino)pyridin-3-yl)methyl)piperazin-1-yl)acetamido)spiro[3.3]heptan-2-yl)amino)-6-(isopropylamino)nicotinamide] | ≥ 50 | > 100 |
| CC(=O)c1c(C)c2cnc(Nc3ccc(N4CCN(C5CCN(C(=O)N6CC7(CCC(Nc8nc(NC(C)C)ccc8C(=O)Nc8ccc(N(C)C)nn8)CC7)C6)C5)CC4)cn3)nc2n(C2CCCC2)c1=O (stereo not drawn) [CPD-555, 2-((2-(3-(4-(6-((6-acetyl-8-cyclopentyl-5-methyl-7-oxo-7,8-dihydropyrido[2,3-d]pyrimidin-2-yl)amino)pyridin-3-yl)piperazin-1-yl)pyrrolidine-1-carbonyl)-2-azaspiro[3.5]nonan-7-yl)amino)-N-(6-(dimethylamino)pyridazin-3-yl)-6-(isopropylamino)nicotinamide] | ≤ 10 | 50 to 100 |
| CC(=O)c1c(C)c2cnc(Nc3ccc(N4CCN(C5CCN(C(=O)C6CCC7(CC(Nc8nc(NC(C)C)ccc8C(=O)Nc8ccc(N(C)C)nn8)C7)C6)C5)CC4)cn3)nc2n(C2CCCC2)c1=O (stereo not drawn) [CPD-556, 2-((6-(3-(4-(6-((6-acetyl-8-cyclopentyl-5-methyl-7-oxo-7,8-dihydropyrido[2,3-d]pyrimidin-2-yl)amino)pyridin-3-yl)piperazin-1-yl)pyrrolidine-1-carbonyl)spiro[3.4]octan-2-yl)amino)-N-(6-(dimethylamino)pyridazin-3-yl)-6-(isopropylamino)nicotinamide] | ≤ 10 | < 50 |
| CC(C)Nc1ccc(C(=O)Nc2ccc(N(C)C)nn2)c(N[C@H]2CC[C@H](C(=O)N3CCC(N4CCN(c5ccc(Nc6ncc7cc(C(F)F)c(=O)n(C8CCCC8)c7n6)nc5)CC4)C3)CC2)n1 (stereo partly drawn) [CPD-559, 2-((trans-4-(3-(4-(6-((8-cyclopentyl-6-(difluoromethyl)-7-oxo-7,8-dihydropyrido[2,3-d]pyrimidin-2-yl)amino)pyridin-3-yl)piperazin-1-yl)pyrrolidine-1-carbonyl)cyclohexyl)amino)-N-(6-(dimethylamino)pyridazin-3-yl)-6-(isopropylamino)nicotinamide] | 10 to 50 | > 100 |
| CC(=O)c1cc2cnc(Nc3ccc(N4CCN(C5CCN(C(=O)[C@H]6CC[C@H](Nc7nc(NC(C)C)ccc7C(=O)Nc7ccc(N(C)C)nn7)CC6)C5)CC4)cn3)nc2n(C2CCCC2)c1=O (stereo partly drawn) [CPD-560, 2-((trans-4-(3-(4-(6-((6-acetyl-8-cyclopentyl-7-oxo-7,8-dihydropyrido[2,3-d]pyrimidin-2-yl)amino)pyridin-3-yl)piperazin-1-yl)pyrrolidine-1-carbonyl)cyclohexyl)amino)-N-(6-(dimethylamino)pyridazin-3-yl)-6-(isopropylamino)nicotinamide] | ≤ 10 | > 100 |
| CC(=O)c1c(C)c2cnc(Nc3ccc(N4CCN(C5CCN(C(=O)N6CCC7(CCC(Nc8nc(NC(C)C)ccc8C(=O)Nc8ccc(N(C)C)nn8)C7)C6)C5)CC4)cn3)nc2n(C2CCCC2)c1=O (stereo not drawn) [CPD-561, 2-((2-(3-(4-(6-((6-acetyl-8-cyclopentyl-5-methyl-7-oxo-7,8-dihydropyrido[2,3-d]pyrimidin-2-yl)amino)pyridin-3-yl)piperazin-1-yl)pyrrolidine-1-carbonyl)-2-azaspiro[4.4]nonan-7-yl)amino)-N-(6-(dimethylamino)pyridazin-3-yl)-6-(isopropylamino)nicotinamide] | ≤ 10 | > 100 |
